In the experiment the target is T1, Kv7.1/KCNE1 (Homo sapiens, UniProt P51787).
T1 construct: cRNA encoding Kv7.1 (UniProt: P51787), KCNE1 (UniProt: P15382.1); expressed in transfected cells; host or cells: Xenopus laevis oocytes (cRNA injection, Kv7.1:KCNE1 3:1 by weight)
Kind of experiment: Two-electrode voltage clamp of Kv7.1/KCNE1 expressed in Xenopus oocytes. The experiment is classed as cell-based. Set-up: Fitted slope factor of conductance vs voltage relationship: unit of the concentration uncertain. As to conditions: for IKs I/I0: relative current at 0 mV. Here is the method: Molecular Biology cRNA encoding Kv7.1 (UniProt: P51787), KCNE1 (UniProt: P15382.1), Nav1.5 (UniProt: Q14524.1), Nav β1 (UniProt: […]), Nav β3 (UniProt: […]), Cav1.2 (GenBank: CAA84346), Cav β3 (Uniprot: P54286), Cav β2 (Uniprot: P54288), and Cav α2δ (Uniprot: P13806) were transcribed using the mMessage mMachine T7 kit (Ambion). 50 ng of cRNA was injected into defolliculated Xenopus laevis oocytes (Ecocyte, Austin, TX): For Kv7.1/KCNE1 channel expression, we injected a 3:1, weight:weight (Kv7.1:KCNE1) cRNA ratio. For Nav1.5 channel expression, we injected a 2:1, weight:weight (Nav1.5:β1) cRNA ratio. For Cav1.2 channel expression, we injected a 2:1:1, weight:weight (Cav1.2:β3:α2δ) cRNA ratio. The exact stoichiometry for channel macromolecular complexes, including α -subunits and auxiliary subunits is not clear for many ion channels. For example, there have been multiple reported stoichiometries for Kv7.1:KCNE1 determined in heterologous expression systems with some groups reporting flexible stoichiometry of 4 Kv7.1: 1–4 KCNE1 and others reporting a fixed stoichiometry of 4 Kv7.1: 2 KCNE1 ([Murray et al., 2016]; [Nakajo et al., 2010]). The ratios of cRNA of α- and auxiliary subunits that we injected in Xenopus laevis oocytes are such that all α-subunits are assumed to be in complex with auxiliary subunits. This allows a more homogenous population of ion channels with auxiliary subunits. One caveat to expressing ion channels as macromolecular complexes is that there are many other auxiliary subunits that could associate with the channel α -subunit that are present in cardiomyocytes and have the potential to alter PUFA-induced effects, but that are not being co-expressed in our experiments. In this work, we are co-expressing some of the auxiliary subunits that have been primarily reported to associate with their respective α -subunits in cardiomyocytes. Following cRNA injection, cells were incubated for 72–96 hr in standard ND96 solution (96 mM NaCl, 2 mM KCl, 1 mM MgCl2, 1.8 mM CaCl2, 5 mM HEPES; pH = 7.5) containing 1 mM pyruvate at 16°C prior to electrophysiological recordings.
Xenopus laevis oocytes were recorded in the two-electrode voltage clamp (TEVC) configuration. Recording pipettes were filled with 3 M KCl. The recording chamber was filled with ND96 (96 mM NaCl, 2 mM KCl, 1 mM MgCl2, 1.8 mM CaCl2, 5 mM HEPES; pH 7.5). For Cav1.2/β3/α2δ channel recordings, Xenopus oocytes were injected with 50 nl of 100 mM EGTA and incubated at 10°C for 30 min prior to electrophysiological recordings in order to sequester cytosolic calcium. In addition, Cav1.2/β3/α2δ channel recordings were done in Ca^2+-free solutions, using Ba^2+ as the charge carrier, to prevent calcium-dependent inactivation of Cav1.2/β3/α2δ channels. Calcium-dependent inactivation was not studied in this work, due to the presence of large calcium-activated chloride currents present in Xenopus laevis oocytes. PUFAs were obtained from Cayman Chemical (Ann Arbor, MI.) or synthesized in house (Linköping, Sweden) through methods previously described ([Bohannon et al., 2020]) and kept at −20 °C as 100 mM stock solutions in ethanol. […] PUFAs were perfused into the recording chamber using the Rainin Dynamax Peristaltic Pump (Model RP-1) (Rainin Instrument Co., Oakland, CA. USA).
Electrophysiological recordings were obtained using Clampex 10.3 software (Axon, pClamp, Molecular Devices). To measure Kv7.1/KCNE1 currents we apply PUFAs as the membrane potential is stepped every 30 s from −80 mV to 0 mV for 5 s before stepping to −40 mV and back to −80 mV to ensure that the PUFA effects on the current at 0 mV reached steady state. A voltage-step protocol was used to measure the current vs. voltage (I-V) relationship before PUFA application and after the PUFA effects had reached steady state for each concentration of PUFA. Cells were held at −80 mV followed by a hyperpolarizing prepulse to −140 mV. […]
A general note: In two-electrode clamp one electrode senses voltage and the other passes current.

A value given as a limit tells only on which side of the number the result lay.

Regarding `CCCCC/C=C\C/C=C\C/C=C\C/C=C\CCCC(=O)NCCS(=O)(=O)O` [N-AT, N-arachidonoyl taurine], the “Fitted slope factor of conductance vs voltage relationship” value was 16.9 ± 0.65 mV (0.2 μM); 17.2 ± 0.62 mV (0.7 μM); 17.4 ± 0.60 mV (2 μM); 18.2 ± 0.59 mV (7 μM); 18.7 ± 0.73 mV (20 μM). The Gmax/Gmax0 stood at 1.0 ± 0.1 (0.2 μM); 0.9 ± 0.02 (0.7 μM); 0.9 ± 0.02 (2 μM); 0.9 ± 0.03 (7 μM); 0.9 ± 0.02 (20 μM). In addition, the “ΔV0.5 (voltage dependence of activation)” value is reported as 0.7 ± 0.8 mV (0.2 μM); 0.9 ± 1.1 mV (0.7 μM); 0.6 ± 1.1 mV (2 μM); “–1.8 ± 2.6 mV” (7 μM); -8.5 ± 4.9 mV (20 μM). The “IKs I/I0” value runs as follows: (0.2 μM) 1.0 ± 0.02; (0.7 μM) 1.0 ± 0.03; (2 μM) 1.0 ± 0.04; (20 μM) 1.3 ± 0.2. The “concentrations at which the effects on IKs appear” value (I/I0 at 0 mV) is over 20 µM.

Regarding `CCCCC/C=C\C/C=C\CC/C=C\CCCC(=O)NCC(=O)O` [Pin-glycine], the “Fitted slope factor of conductance vs voltage relationship” value stood at 17.9 ± 0.83 mV (0.2 μM); 17.8 ± 0.84 mV (0.7 μM); 17.9 ± 0.91 mV (2 μM); 18.7 ± 1.1 mV (7 μM); 20.9 ± 1.4 mV (20 μM). The Gmax/Gmax0 by setting is: (0.2 μM) 1.0 ± 0.1; (0.7 μM) 1.2 ± 0.1; (2 μM) 1.3 ± 0.1; (7 μM) 1.7 ± 0.1; (20 μM) 1.7 ± 0.1. In addition, the “ΔV0.5 (voltage dependence of activation)” value was 3.9 ± 0.6 mV (0.2 μM); 2.3 ± 0.2 mV (0.7 μM); 2.3 ± 0.7 mV (2 μM); -8.5 ± 1.7 mV (7 μM, listed as pin-glycine); -19.9 ± 2.4 mV (20 μM). Besides, the “IKs I/I0” value by setting is: (0.2 μM) 0.7 ± 0.1; (0.7 μM) 1.0 ± 0.1; (2 μM) 1.1 ± 0.1; (7 μM, listed as pin-glycine) 2.4 ± 0.2; (20 μM) 3.6 ± 0.2.

As for `CCCCC/C=C\C/C=C\CC/C=C\CCCC(=O)NCCS(=O)(=O)O` [Pin-taurine], the “Fitted slope factor of conductance vs voltage relationship” value by setting is: (0.2 μM) 17.9 ± 0.82 mV; (0.7 μM) 17.7 ± 0.82 mV; (2 μM) 18.3 ± 0.96 mV; (7 μM) 18.8 ± 1.0 mV; (20 μM) 16.8 ± 0.73 mV. Further, the Gmax/Gmax0 (0.2 μM) stood at 1.2 ± 0.1; the Gmax/Gmax0 (0.7 μM) is recorded as 1.3 ± 0.2; the Gmax/Gmax0 (2 μM) is reported as 2.0 ± 0.4; the Gmax/Gmax0 (7 μM, listed as pin-taurine) is given as 2.2 ± 0.4; the Gmax/Gmax0 (20 μM) was found to be 1.9 ± 0.3. Further, the “ΔV0.5 (voltage dependence of activation)” value by setting is: (0.2 μM) 2.6 ± 2.4 mV; (0.7 μM) 2.3 ± 3.5 mV; (2 μM) -4.9 ± 3.4 mV; (7 μM) −23.8 ± 2.7 mV; (7 μM, listed as pin-taurine) -23.8 ± 2.7 mV; (20 μM) -51.6 ± 3.5 mV. The “IKs I/I0” value (0.2 μM) stood at 1.1 ± 0.1; the “IKs I/I0” value (0.7 μM) is listed as 1.4 ± 0.4; the “IKs I/I0” value (2 μM) was 3.0 ± 0.4; the “IKs I/I0” value (7 μM) is listed as 6.8 ± 1.0 (p=0.01); the “IKs I/I0” value (7 μM, listed as pin-taurine) is 6.8 ± 1.0; the “IKs I/I0” value (20 μM) was 9.0 ± 1.4.

Source of the values: PMC7159882, “Polyunsaturated fatty acid analogues differentially affect cardiac NaV, CaV, and KV channels through unique mechanisms” (eLife, 2020).
